From ChEMBL document CHEMBL5634160, “Synthesis, biological evaluation and action mechanism of 7H-[1,2,4] triazolo [3,4-b] [1,3,4] thiadiazine-phenylhydrazone derivatives as α-glucosidase inhibitors” (Eur J Med Chem, 2023)

What was measured:
[1] = target: T1, Alpha-glucosidase (Saccharomyces cerevisiae S288c, UniProt P53341+P38158+P07265); assay: Inhibition of Saccharomyces cerevisiae alpha-glucosidase using nitrophenol-alpha-D-glucopyranoside (pNPG) as substrate incubated for 15 mins; assay type: protein assay
[2] = target: T2, Alpha-glucosidase (Saccharomyces cerevisiae S288c) (UniProt P53341+P38158+P07265); assay: Binding affinity to Saccharomyces cerevisiae alpha-glucosidase assessed as quenching constant value (Ka) by fluorescence quenching study; assay type: protein assay
[3] = target: T2, Alpha-glucosidase (Saccharomyces cerevisiae S288c); assay: Binding affinity to Saccharomyces cerevisiae alpha-glucosidase assessed as decrease in fluorescence intensity at 0 to 45 uM by fluorescence quenching study relative to control; assay type: protein assay; parameters: scale not given: the % may be the effect or the level left; settings: dose 0-45 µM
[4] = test system: Mus musculus; assay: Anti-diabetic activity against 16 hrs fasted male Kunming mouse assessed as AUC of postprandial blood glucose at 20 mg/kg, IG after 30 mins […] of sucrose administered and measured upto 2 hrs by sucrose tolerance test (reference value: 810.40 +/- 75.53 mM.min); assay type: functional, organism-based
[5] = test system: Mus musculus; assay: Anti-diabetic activity against 16 hrs fasted male Kunming mouse assessed as decrease in postprandial blood glucose at 20 mg/kg, IG after 30 mins […] of sucrose administered and measured upto 2 hrs by sucrose tolerance test; assay type: functional; settings: po
[6] = target: T2, Alpha-glucosidase (Saccharomyces cerevisiae S288c); assay: Binding affinity to Saccharomyces cerevisiae alpha-glucosidase assessed as decrease in protein stability by measuring beta-sheet structure at 5 uM measured after 5 mins by CD spectrum assay (reference value: 4.30%); parameters: scale not given: the % may be the effect or the level left
[7] = target: T2, Alpha-glucosidase (Saccharomyces cerevisiae S288c); assay: Binding affinity to Saccharomyces cerevisiae alpha-glucosidase assessed as decrease in protein stability by measuring beta-sheet structure at 20 uM measured after 5 mins by CD spectrum assay (reference value: 4.30%); parameters: scale not given: the % may be the effect or the level left
[8] = target: T2, Alpha-glucosidase (Saccharomyces cerevisiae S288c); assay: Binding affinity to Saccharomyces cerevisiae alpha-glucosidase assessed as decrease in protein stability by measuring beta-turn structure at 5 uM measured after 5 mins by CD spectrum assay (reference value: 6.80%); parameters: scale not given: the % may be the effect or the level left
[9] = target: T2, Alpha-glucosidase (Saccharomyces cerevisiae S288c); assay: Binding affinity to Saccharomyces cerevisiae alpha-glucosidase assessed as decrease in protein stability by measuring beta-turn structure at 7.5 uM measured after 5 mins by CD spectrum assay (reference value: 6.80%); parameters: scale not given: the % may be the effect or the level left
[10] = test system: CYP2D6; assay: Inhibition of CYP2D6 in rat liver microsomes assessed as remaining activity at 100 uM measured after 30 mins by LC-MS/MS analysis; assay type: ADME, Microsome; settings: read-out: Activity
[11] = target: T1, Alpha-glucosidase; assay: Non-competitive inhibition of Saccharomyces cerevisiae alpha-glucosidase using nitrophenol-alpha-D-glucopyranoside (pNPG) as substrate at 24 to 48 uM measured after 15 mins by Lineweaver-Burk plot analysis; assay type: protein assay
[12] = Cytotoxicity against human HEK293 cells assessed as cell viability at 100 uM measured after 24 hrs by MTT assay relative to control; assay type: toxicity, cell-based; settings: read-out: Activity
[13] = target: T1, Alpha-glucosidase; assay: Competitive inhibition of Saccharomyces cerevisiae alpha-glucosidase using nitrophenol-alpha-D-glucopyranoside (pNPG) as substrate at 24 to 48 uM measured after 15 mins by Lineweaver-Burk plot analysis; assay type: protein assay
[14] = test system: CYP2B6; assay: Inhibition of CYP2B6 in rat liver microsomes assessed as remaining activity at 100 uM measured after 30 mins by LC-MS/MS analysis; assay type: ADME, Microsome; settings: read-out: Activity
[15] = target: T2, Alpha-glucosidase (Saccharomyces cerevisiae S288c); assay: Binding affinity to Saccharomyces cerevisiae alpha-glucosidase assessed as decrease in protein stability by measuring alpha-helix structure at 10 uM measured after 5 mins by CD spectrum assay (reference value: 84.50%); parameters: scale not given: the % may be the effect or the level left
[16] = target: CYP2E1 (Rattus norvegicus, UniProt P05182); assay: Inhibition of CYP2E1 in rat liver microsomes assessed as remaining activity at 100 uM measured after 30 mins by LC-MS/MS analysis; assay type: ADME, Microsome; settings: read-out: Activity
Sequence of CYP2E1 (P05182 whole entry): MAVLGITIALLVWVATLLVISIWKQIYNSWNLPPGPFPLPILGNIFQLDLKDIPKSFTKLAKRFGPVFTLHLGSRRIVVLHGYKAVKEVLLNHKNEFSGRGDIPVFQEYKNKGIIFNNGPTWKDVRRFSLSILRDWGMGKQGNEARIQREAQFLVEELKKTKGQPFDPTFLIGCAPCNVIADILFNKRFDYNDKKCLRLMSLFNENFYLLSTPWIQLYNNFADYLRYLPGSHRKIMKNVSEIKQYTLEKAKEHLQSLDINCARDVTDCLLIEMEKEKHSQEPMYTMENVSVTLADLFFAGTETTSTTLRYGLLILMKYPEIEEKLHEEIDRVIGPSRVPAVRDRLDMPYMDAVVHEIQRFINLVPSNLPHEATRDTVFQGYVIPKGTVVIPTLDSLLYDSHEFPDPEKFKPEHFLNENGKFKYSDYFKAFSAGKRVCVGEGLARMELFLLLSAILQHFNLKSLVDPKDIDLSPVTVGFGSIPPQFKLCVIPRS

[17] = test system: CYP2C9; assay: Inhibition of CYP2C9 in rat liver microsomes assessed as remaining activity at 100 uM measured after 30 mins by LC-MS/MS analysis; assay type: ADME, Microsome; settings: read-out: Activity
[18] = target: T2, Alpha-glucosidase (Saccharomyces cerevisiae S288c); assay: Binding affinity to Saccharomyces cerevisiae alpha-glucosidase assessed as decrease in protein stability by measuring beta-sheet structure at 10 uM measured after 5 mins by CD spectrum assay (reference value: 4.30%); parameters: scale not given: the % may be the effect or the level left
[19] = target: T2, Alpha-glucosidase (Saccharomyces cerevisiae S288c); assay: Binding affinity to Saccharomyces cerevisiae alpha-glucosidase assessed as decrease in protein stability by measuring beta-sheet structure at 15 uM measured after 5 mins by CD spectrum assay (reference value: 4.30%); parameters: scale not given: the % may be the effect or the level left
[20] = target: T2, Alpha-glucosidase (Saccharomyces cerevisiae S288c); assay: Binding affinity to Saccharomyces cerevisiae alpha-glucosidase assessed as decrease in protein stability by measuring random coil structure at 15 uM measured after 5 mins by CD spectrum assay (reference value: 6.20%); parameters: scale not given: the % may be the effect or the level left
[21] = target: T2, Alpha-glucosidase (Saccharomyces cerevisiae S288c); assay: Binding affinity to Saccharomyces cerevisiae alpha-glucosidase assessed as decrease in protein stability by measuring beta-turn structure at 20 uM measured after 5 mins by CD spectrum assay (reference value: 6.80%); parameters: scale not given: the % may be the effect or the level left
[22] = target: T2, Alpha-glucosidase (Saccharomyces cerevisiae S288c); assay: Binding affinity to Saccharomyces cerevisiae alpha-glucosidase assessed as decrease in protein stability by measuring beta-sheet structure at 7.5 uM measured after 5 mins by CD spectrum assay (reference value: 4.30%); parameters: scale not given: the % may be the effect or the level left
[23] = target: T2, Alpha-glucosidase (Saccharomyces cerevisiae S288c); assay: Binding affinity to Saccharomyces cerevisiae alpha-glucosidase assessed as decrease in fluorescence intensity peak 1 by 3D spectra assay; assay type: protein assay; parameters: scale not given: the % may be the effect or the level left
[24] = target: T2, Alpha-glucosidase (Saccharomyces cerevisiae S288c); assay: Binding affinity to Saccharomyces cerevisiae alpha-glucosidase assessed as quenching constant value (Ksv) by fluorescence quenching study; assay type: protein assay
[25] = target: T2, Alpha-glucosidase (Saccharomyces cerevisiae S288c); assay: Binding affinity to Saccharomyces cerevisiae alpha-glucosidase assessed as decrease in fluorescence intensity peak 2 by 3D spectra assay; assay type: protein assay; parameters: scale not given: the % may be the effect or the level left
[26] = target: T2, Alpha-glucosidase (Saccharomyces cerevisiae S288c); assay: Binding affinity to Saccharomyces cerevisiae alpha-glucosidase assessed as decrease in protein stability by measuring alpha-helix structure at 15 uM measured after 5 mins by CD spectrum assay (reference value: 84.50%); parameters: scale not given: the % may be the effect or the level left
[27] = target: T2, Alpha-glucosidase (Saccharomyces cerevisiae S288c); assay: Binding affinity to Saccharomyces cerevisiae alpha-glucosidase assessed as decrease in protein stability by measuring alpha-helix structure at 7.5 uM measured after 5 mins by CD spectrum assay (reference value: 84.50%); parameters: scale not given: the % may be the effect or the level left
[28] = target: T2, Alpha-glucosidase (Saccharomyces cerevisiae S288c); assay: Binding affinity to Saccharomyces cerevisiae alpha-glucosidase assessed as decrease in protein stability by measuring random coil structure at 7.5 uM measured after 5 mins by CD spectrum assay (reference value: 6.20%); parameters: scale not given: the % may be the effect or the level left
[29] = Cytotoxicity against human HEK293 cells assessed as cell viability at 200 uM measured after 24 hrs by MTT assay relative to control; assay type: toxicity, cell-based; settings: read-out: Activity
[30] = target: T3, CYP1A2 (Rattus norvegicus, UniProt P04799); assay: Inhibition of CYP1A2 in rat liver microsomes assessed as remaining activity at 100 uM measured after 30 mins by LC-MS/MS analysis; assay type: ADME, Microsome; settings: read-out: Activity
T3 sequence (P04799 whole entry): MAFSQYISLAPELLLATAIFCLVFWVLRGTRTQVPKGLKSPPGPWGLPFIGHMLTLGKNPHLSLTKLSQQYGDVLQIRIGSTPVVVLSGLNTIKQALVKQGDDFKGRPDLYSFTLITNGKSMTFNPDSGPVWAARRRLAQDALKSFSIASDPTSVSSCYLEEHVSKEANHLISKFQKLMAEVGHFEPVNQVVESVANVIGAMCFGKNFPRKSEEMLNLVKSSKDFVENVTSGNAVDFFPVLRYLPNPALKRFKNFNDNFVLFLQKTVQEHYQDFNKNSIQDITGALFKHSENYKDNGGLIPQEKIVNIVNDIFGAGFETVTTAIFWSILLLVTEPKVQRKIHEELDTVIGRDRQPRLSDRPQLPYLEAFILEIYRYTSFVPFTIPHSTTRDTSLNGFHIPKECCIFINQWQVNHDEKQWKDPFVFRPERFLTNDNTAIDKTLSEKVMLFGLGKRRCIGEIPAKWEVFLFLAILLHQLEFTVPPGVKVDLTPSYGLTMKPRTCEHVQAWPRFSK

[31] = test system: CYP2C19; assay: Inhibition of CYP2C19 in rat liver microsomes assessed as remaining activity at 100 uM measured after 30 mins by LC-MS/MS analysis; assay type: ADME, Microsome; settings: read-out: Activity
[32] = target: T2, Alpha-glucosidase (Saccharomyces cerevisiae S288c); assay: Binding affinity to Saccharomyces cerevisiae alpha-glucosidase assessed as decrease in protein stability by measuring random coil structure at 10 uM measured after 5 mins by CD spectrum assay (reference value: 6.20%); parameters: scale not given: the % may be the effect or the level left
[33] = target: T2, Alpha-glucosidase (Saccharomyces cerevisiae S288c); assay: Binding affinity to Saccharomyces cerevisiae alpha-glucosidase assessed as decrease in protein stability by measuring alpha-helix structure at 5 uM measured after 5 mins by CD spectrum assay (reference value: 84.50%); parameters: scale not given: the % may be the effect or the level left
[34] = target: T2, Alpha-glucosidase (Saccharomyces cerevisiae S288c); assay: Binding affinity to Saccharomyces cerevisiae alpha-glucosidase assessed as decrease in protein stability by measuring beta-turn structure at 15 uM measured after 5 mins by CD spectrum assay (reference value: 6.80%); parameters: scale not given: the % may be the effect or the level left
[35] = target: T2, Alpha-glucosidase (Saccharomyces cerevisiae S288c); assay: Binding affinity to Saccharomyces cerevisiae alpha-glucosidase assessed as decrease in protein stability by measuring alpha-helix structure at 20 uM measured after 5 mins by CD spectrum assay (reference value: 84.50%); parameters: scale not given: the % may be the effect or the level left
[36] = test system: CYP3A4; assay: Inhibition of CYP3A4 in rat liver microsomes assessed as remaining activity at 100 uM measured after 30 mins by LC-MS/MS analysis; assay type: ADME, Microsome; settings: read-out: Activity
[37] = target: T2, Alpha-glucosidase (Saccharomyces cerevisiae S288c); assay: Binding affinity to Saccharomyces cerevisiae alpha-glucosidase assessed as quenching constant value (Kq) by fluorescence quenching study; assay type: protein assay
[38] = target: T2, Alpha-glucosidase (Saccharomyces cerevisiae S288c); assay: Binding affinity to Saccharomyces cerevisiae alpha-glucosidase assessed as decrease in protein stability by measuring random coil structure at 5 uM measured after 5 mins by CD spectrum assay (reference value: 6.20%); parameters: scale not given: the % may be the effect or the level left
[39] = target: T2, Alpha-glucosidase (Saccharomyces cerevisiae S288c); assay: Binding affinity to Saccharomyces cerevisiae alpha-glucosidase assessed as decrease in protein stability by measuring beta-turn structure at 10 uM measured after 5 mins by CD spectrum assay (reference value: 6.80%); parameters: scale not given: the % may be the effect or the level left
[40] = target: T2, Alpha-glucosidase (Saccharomyces cerevisiae S288c); assay: Binding affinity to Saccharomyces cerevisiae alpha-glucosidase assessed as decrease in protein stability by measuring random coil structure at 20 uM measured after 5 mins by CD spectrum assay (reference value: 6.20%); parameters: scale not given: the % may be the effect or the level left
[41] = Cytotoxicity against human HEK293 cells assessed as cell viability at 50 uM measured after 24 hrs by MTT assay relative to control; assay type: toxicity, cell-based; settings: read-out: Activity
[42] = Cytotoxicity against human HEK293 cells assessed as cell viability at 150 uM measured after 24 hrs by MTT assay relative to control; assay type: toxicity, cell-based; settings: read-out: Activity

Oc1ccccc1/C=N/Nc1nnc2n1N=C(c1ccccc1)CS2
IC50 [1]: 55.42 µM

Oc1ccc(/C=N/Nc2nnc3n2N=C(c2ccccc2)CS3)cc1
IC50 [1]: 213.5 µM

COc1cc(/C=N/Nc2nnc3n2N=C(c2ccccc2)CS3)cc(OC)c1O
Ka [2]: 3.16 10^4L/mol | Activity [3]: 87.7% | IC50 [1]: 31.23 µM | AUC [4]: 723 mM·min | inhibition in vivo at 20 mg/kg [5]: 24.4% | Activity [6]: 5.8% | Activity [7]: 7% | Activity [8]: 10.1% | Activity [9]: 10.6% | activity at 0.5 h, 100 µM [10]: 92.3% | Ki [11]: 87.56 µM | viability at 24 h, 100 µM [12]: 90.5% | Ki [13]: 40.46 µM | activity at 0.5 h, 100 µM [14]: 98.7% | Activity [15]: 62.7% | activity at 0.5 h, 100 µM [16]: 92.6% | activity at 0.5 h, 100 µM [17]: 90.7% | Activity [18]: 6.3% | Activity [19]: 6.6% | Activity [20]: 19.7% | Activity [21]: 11.6% | Activity [22]: 6.1% | Activity [23]: 31.9% | KSV [24]: 1.57 10^5L/mol | Activity [25]: 37.4% | Activity [26]: 60.2% | Activity [27]: 63.4% | Activity [28]: 17.5% | viability at 24 h, 200 µM [29]: 71.6% | activity at 0.5 h, 100 µM [30]: 77.7% | activity at 0.5 h, 100 µM [31]: 75.4% | Activity [32]: 18.4% | Activity [33]: 66.5% | Activity [34]: 11.2% | Activity [35]: 57.3% | activity at 0.5 h, 100 µM [36]: 96.5% | Kq [37]: 1.57 10^13L/mol | Activity [38]: 16% | Activity [39]: 10.8% | Activity [40]: 21.2% | viability at 24 h, 50 µM [41]: 100% | viability at 24 h, 150 µM [42]: 81.2%

Fc1ccccc1/C=N/Nc1nnc2n1N=C(c1ccccc1)CS2
IC50 [1]: > 250 µM
